ChEMBL document CHEMBL5236548, “Marine Natural Products: A Potential Source of Anti-hepatocellular Carcinoma Drugs” (J Med Chem, 2021)
pIC50: −log10 of the molar value.

Key:
[1] = test system: HepG2; assay: Anticancer activity against human HepG2 cells by MTT assay; format: functional, cell-based
[2] = test system: HepG2; assay: Cytotoxicity against human HepG2 cells measured after 3 days by MTT assay; format: functional, cell-based; conditions: HepG2, 72 h
[3] = test system: HepG2; assay: Cytotoxicity against human HepG2 cells incubated for 48 hrs by MTT assay; format: functional, cell-based; conditions: HepG2, 48 h
[4] = test system: HepG2; assay: Antiproliferative activity against human HepG2 cells incubated for 72 hrs; format: functional, cell-based; conditions: HepG2, 72 h
[5] = test system: HepG2; assay: Antimigratory activity against human HepG2 cells assessed as reduction in cell migration by cell migration assay; format: functional, cell-based
[6] = test system: HepG2; assay: Antiproliferative activity against human HepG2 cells incubated for 72 hrs by MTT assay; format: functional, cell-based; conditions: HepG2, 72 h
[7] = test system: HepG2; assay: Cytotoxicity against human HepG2 cells by SRB assay; format: functional, cell-based
[8] = test system: SMMC-7721; assay: Cytotoxicity against human SMMC-7721 cells by SRB assay; format: functional, cell-based
[9] = test system: HepG2; assay: Antiproliferative activity against doxorubicin resistant human HepG2 cells for 24 hrs in presence of c-phycocyanin by MTT assay; conditions: HepG2, 24 h
[10] = test system: PLC-PRF-5; assay: Cytotoxicity against human PLC-PRF-5 cells by SRB assay; format: functional, cell-based
[11] = test system: Huh-7; assay: Cytotoxicity against human Huh-7 cells; format: functional, cell-based
[12] = test system: Hep 3B2; assay: Cytotoxicity against human Hep3B cells; format: functional, cell-based
[13] = test system: SNU-387; assay: Antiproliferative activity against human SNU-387 cells by MTT assay; format: functional, cell-based
[14] = test system: HepG2; assay: Antiproliferative activity against human HepG2 cells by MTT assay; format: functional, cell-based
[15] = Antiproliferative activity against human HCC cells by MTT assay; format: functional, cell-based
[16] = test system: Huh-7; assay: Antiproliferative activity against human Huh-7 cells by MTT assay; format: functional, cell-based
[17] = test system: SMMC-7721; assay: Antiproliferative activity against human SMMC-7721 cells measured after 48 hrs; format: functional, cell-based; conditions: SMMC-7721, 48 h
[18] = test system: HepG2; assay: Antiproliferative activity against human HepG2 cells assessed as cell growth inhibition by SRB method; format: functional
[19] = test system: SK-HEP1; assay: Antiproliferative activity against human SK-HEP1 cells assessed as cell growth inhibition by SRB method; format: functional
[20] = test system: HepG2; assay: Cytotoxicity against human HepG2 cells by MTT assay; format: functional, cell-based
[21] = test system: Bel-7402; assay: Cytotoxicity against human 7402 hepatoma cells incubated for 24 hrs by MTT assay; format: functional, cell-based; conditions: Bel-7402, 24 h
[22] = test system: MDA-MB-435; assay: Cytotoxicity against human MDA-MB-435 cells incubated for 24 hrs by MTT assay; format: functional, cell-based; conditions: MDA-MB-435, 24 h

**Q.** With `CCCCCC1=C/C(=C\c2[nH]c(-c3ccc[nH]3)cc2OC)N=C1C` as the compound, how does the pIC50 [1] read?
**A.** 7.40

**Q.** With `C=C(CC[C@@H](C)[C@H]1[C@@H](O)C[C@H]2[C@@H]3CC=C4C[C@@H](O)CC[C@]4(C)[C@H]3[C@H](O)C[C@]12C)C(C)C` as the compound, how does the pIC50 [2] read?
**A.** 4.83

**Q.** With `COc1cccc2c1C(=O)c1c(O)c3c(c(O)c1C2=O)C[C@@](O)(C(=O)CO)C[C@@H]3O[C@H]1C[C@H](N)[C@@H](O)[C@H](C)O1` [EPIRUBICIN] as the compound, how does the pIC50 [3] read?
**A.** 6.02

**Q.** With `CC[C@H]1C=CCC[C@@]2(C[C@@H]3CC[C@]4(O)[C@H](C(=O)OCCCCCCCCCCCCCCCCC(=O)N(CCCN)C[C@@H](O)CCN)[C@]5(CCC[C@@H](C)O5)NC(=N2)N34)O1` as the compound, how does the pIC50 [4] read?
**A.** 5.68

**Q.** With `C[C@]1(O)Cc2c(O)c3c(c(O)c2C[C@H]1O)C(=O)C1=C(SCCS1)C3=O` as the compound, how does the pIC50 [3] read?
**A.** 5.70

**Q.** With `CC[C@H]1C=CCC[C@@]2(C[C@@H]3CC[C@]4(O)[C@H](C(=O)OCCCCCCCCCCCCCCCC(=O)N(CCCN)C[C@@H](O)CCN)[C@]5(CCC[C@@H](C)O5)NC(=N2)N34)O1` as the compound, how does the pIC50 [5] read?
**A.** 6.74

**Q.** With `COc1ccc2[nH]c([C@@H]3C4C5CCC([C@H](C)CCCC(C)C)[C@@]5(C)CCC4[C@@]4(C)CC[C@H](O)C[C@@]34O)nc2c1` (stereo partly drawn) as the compound, how does the pIC50 [6] read?
**A.** 5.08

**Q.** With `COc1cccc2c1C(=O)c1c(O)c3c(c(O)c1C2=O)C[C@@](O)(C(=O)CO)C[C@@H]3O[C@H]1C[C@H](N)[C@H](O)[C@H](C)O1` [DOXORUBICIN] as the compound, how does the pIC50 [7] read?
**A.** 6.04

**Q.** And the pIC50 [8]?
**A.** 6.15

**Q.** What about the pIC50 [9] of the same compound?
**A.** 5.00

**Q.** And the pIC50 [10]?
**A.** 5.99

**Q.** With `C#CCNC1=CC(=O)c2c(O)c3c(c(O)c2C1=O)C[C@](C)(O)[C@H](O)C3` as the compound, how does the pIC50 [3] read?
**A.** 5.00

**Q.** With `COc1cc(O)c2c(c1O)C(=O)C1=C(C2=O)C(O)C(O)C(C)(O)C1` (stereo not drawn) as the compound, how does the pIC50 [11] read?
**A.** 5.02

**Q.** What about the pIC50 [12] of the same compound?
**A.** 5.49

**Q.** With `C[C@@H]1O[C@@H](O[C@H]2CC[C@H](O[C@@]3(C)CC(=O)[C@]4(O)C5=C(C=C[C@]4(O)C3)C(=O)c3c(ccc([C@H]4C[C@H]6O[C@H]7CC(=O)[C@H](C)O[C@@H]7O[C@@H]6[C@@H](C)O4)c3O)C5=O)O[C@H]2C)C=CC1=O` as the compound, how does the pIC50 [7] read?
**A.** 6.87

**Q.** What about the pIC50 [8] of the same compound?
**A.** 7.48

**Q.** And the pIC50 [10]?
**A.** 6.61

**Q.** With `CNC(=O)c1cc(Oc2ccc(NC(=O)Nc3ccc(Cl)c(C(F)(F)F)c3)cc2)ccn1` [SORAFENIB] as the compound, how does the pIC50 [13] read?
**A.** 3.59

**Q.** What about the pIC50 [14] of the same compound?
**A.** 5.19

**Q.** What about the pIC50 [15] of the same compound?
**A.** 4.67

**Q.** And the pIC50 [16]?
**A.** 5.37

**Q.** With `O=c1[nH]cc(F)c(=O)[nH]1` [FLUOROURACIL] as the compound, how does the pIC50 [17] read?
**A.** 4.70

**Q.** What does the source list for `C/C=C\C[C@@H](C/C=C\NC(=O)[C@@H](NC(=O)\C=C/C=C\C(C)=C\[C@H](C)[C@@H]1CC=C(OC)C(=O)O1)C(C)(C)C)OC(N)=O` [PLOCABULIN]?
**A.** GI50 [18]: 0.00276 µM; GI50 [19]: 0.000179 µM

**Q.** With `Cc1cc2nc([C@@H]3C4C5CCC([C@H](C)CCCC(C)C)[C@@]5(C)CCC4[C@@]4(C)CC[C@H](O)C[C@@]34O)[nH]c2cc1C` (stereo partly drawn) as the compound, how does the pIC50 [6] read?
**A.** 5.35

**Q.** With `C/C=C(\N=C=S)C(=O)O[C@H]1[C@@H](OC(C)=O)[C@@H](O)[C@H]([C@@]2(O)CC(=O)C(N)=C(C(=O)O)C2=O)O[C@@H]1C` as the compound, how does the pIC50 [20] read?
**A.** 5.37

**Q.** With `COC(=O)N[C@H]1[C@@H](C)O[C@@H](O[C@H]2C/C=C(\C)[C@@H]3C=C[C@@H]4[C@@H](O[C@H]5C[C@@H](O[C@H]6C[C@@H](O)[C@@H](O[C@@H]7C[C@@H](O)[C@@H](OC)[C@H](C)O7)[C@H](C)O6)[C@@H](O)[C@H](C)O5)[C@H](C)C[C@H](C)[C@H]4[C@]3(C)/C(O)=C3\C(=O)O[C@]4(C[C@@H](C)C(CO)=C[C@H]4/C=C/2C)C3=O)C[C@]1(C)N` as the compound, how does the pIC50 [21] read?
**A.** 3.20

**Q.** And the pIC50 [22]?
**A.** 5.19
